Test results: article PMC7347136 (PLoS ONE, 2020)

Assays:
Test in all cases: Carna kinase panel screen
Type in all cases: biochemical
Conditions in all cases: read-out: % Inhibition ± SD
[1] = molecular target: T1, AKT2 (Homo sapiens, UniProt P31751)
T1 construct: purchased Carna Biosciences
Outline: (§1)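 10-pt curves; [ATP] ~Km; IC50 by 4PL fit of % inhibition.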

[2] = molecular target: T2, AurA (Homo sapiens, UniProt O14965)
T2 construct: purchased Carna Biosciences
Outline: as §1

[3] = molecular target: T3, RSK1 (Homo sapiens, UniProt Q15418)
T3 construct: purchased Carna Biosciences
Outline: as §1

[4] = molecular target: T4, JAK2 (Homo sapiens, UniProt O60674)
T4 construct: purchased Carna Biosciences
Outline: as §1

[5] = molecular target: T5, JAK3 (Homo sapiens, UniProt P52333)
T5 construct: purchased Carna Biosciences
Outline: as §1

[6] = molecular target: T6, PGK (Homo sapiens, UniProt Q13976)
T6 construct: purchased Carna Biosciences
Outline: (§2)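 First, percentage inhibition is computed for each test solution in a 10-point series, ATP held near Km. Then the concentration-inhibition curve is fitted with a four-parameter logistic equation to obtain IC50.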

[7] = molecular target: T7, MET (Homo sapiens, UniProt P08581)
T7 construct: purchased Carna Biosciences
Outline: as §1

[8] = molecular target: T8, BLK (Homo sapiens, UniProt P51451)
T8 construct: purchased Carna Biosciences
Outline: as §1

[9] = molecular target: T9, CLK1 (Homo sapiens, UniProt P49759)
T9 construct: purchased Carna Biosciences
T9 sequence (P49759 whole entry): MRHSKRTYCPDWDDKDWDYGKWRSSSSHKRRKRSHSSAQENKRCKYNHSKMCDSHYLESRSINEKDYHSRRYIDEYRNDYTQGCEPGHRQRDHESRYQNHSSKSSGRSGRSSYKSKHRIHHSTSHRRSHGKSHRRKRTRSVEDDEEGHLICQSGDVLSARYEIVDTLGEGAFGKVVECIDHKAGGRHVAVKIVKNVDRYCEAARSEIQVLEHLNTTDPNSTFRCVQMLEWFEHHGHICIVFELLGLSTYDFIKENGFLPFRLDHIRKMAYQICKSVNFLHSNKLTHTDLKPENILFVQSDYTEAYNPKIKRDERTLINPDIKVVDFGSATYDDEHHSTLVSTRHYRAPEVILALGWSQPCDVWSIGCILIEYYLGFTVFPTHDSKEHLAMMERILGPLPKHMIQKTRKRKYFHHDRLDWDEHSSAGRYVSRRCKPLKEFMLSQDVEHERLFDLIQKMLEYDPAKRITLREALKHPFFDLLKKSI
Outline: as §1

[10] = molecular target: T10, ROCK2 (Homo sapiens, UniProt O75116)
T10 construct: purchased Carna Biosciences
Outline: as §1

[11] = molecular target: T11, FGFR4 (Homo sapiens, UniProt P22455)
T11 construct: purchased Carna Biosciences
Outline: as §1

[12] = molecular target: T12, p38a (Homo sapiens, UniProt Q16539)
T12 construct: purchased Carna Biosciences
Outline: as §1

[13] = molecular target: T13, PIM1 (Homo sapiens, UniProt P11309)
T13 construct: purchased Carna Biosciences
T13 sequence (P11309 whole entry): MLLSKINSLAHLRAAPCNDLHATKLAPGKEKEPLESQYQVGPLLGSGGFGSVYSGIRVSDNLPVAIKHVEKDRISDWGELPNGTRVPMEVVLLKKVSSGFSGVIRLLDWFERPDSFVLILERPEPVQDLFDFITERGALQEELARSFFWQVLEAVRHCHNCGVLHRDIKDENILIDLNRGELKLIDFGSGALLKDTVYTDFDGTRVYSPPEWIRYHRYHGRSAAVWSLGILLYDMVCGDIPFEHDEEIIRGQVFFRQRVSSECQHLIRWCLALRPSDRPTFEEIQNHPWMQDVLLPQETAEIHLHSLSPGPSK
Outline: as §1

[14] = molecular target: T14, EEF2K (Homo sapiens, UniProt O00418)
T14 construct: purchased Carna Biosciences
Outline: as §2

[15] = molecular target: T15, EphA8 (Homo sapiens, UniProt P29322)
T15 construct: purchased Carna Biosciences
Outline: as §2

[16] = molecular target: T16, TTK (Homo sapiens, UniProt P33981)
T16 construct: purchased Carna Biosciences
T16 sequence (P33981 whole entry): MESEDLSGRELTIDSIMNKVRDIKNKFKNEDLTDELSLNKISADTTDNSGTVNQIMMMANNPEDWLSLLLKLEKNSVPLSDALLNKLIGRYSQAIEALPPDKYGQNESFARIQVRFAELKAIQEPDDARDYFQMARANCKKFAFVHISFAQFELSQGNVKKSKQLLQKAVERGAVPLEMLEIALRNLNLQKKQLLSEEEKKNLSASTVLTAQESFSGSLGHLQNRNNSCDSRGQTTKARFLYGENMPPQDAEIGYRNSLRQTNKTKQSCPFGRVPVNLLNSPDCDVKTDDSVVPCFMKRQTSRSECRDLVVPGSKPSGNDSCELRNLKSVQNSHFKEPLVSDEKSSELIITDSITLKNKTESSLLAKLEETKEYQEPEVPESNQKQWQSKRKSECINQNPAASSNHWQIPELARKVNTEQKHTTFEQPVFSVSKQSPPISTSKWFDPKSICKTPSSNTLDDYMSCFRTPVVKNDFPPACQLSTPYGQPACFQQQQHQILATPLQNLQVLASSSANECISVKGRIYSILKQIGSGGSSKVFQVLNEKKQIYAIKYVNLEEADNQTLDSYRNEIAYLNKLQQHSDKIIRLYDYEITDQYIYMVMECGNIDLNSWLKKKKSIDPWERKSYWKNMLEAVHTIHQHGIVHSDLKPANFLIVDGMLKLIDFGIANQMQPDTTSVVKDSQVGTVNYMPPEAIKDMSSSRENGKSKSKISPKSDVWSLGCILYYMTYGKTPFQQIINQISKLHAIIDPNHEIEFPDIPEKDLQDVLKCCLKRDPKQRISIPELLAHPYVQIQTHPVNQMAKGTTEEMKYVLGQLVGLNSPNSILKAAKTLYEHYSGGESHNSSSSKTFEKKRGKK
Outline: as §1

[17] = molecular target: T17, PKCd (Homo sapiens, UniProt Q05655)
T17 construct: purchased Carna Biosciences
Outline: as §1

[18] = molecular target: T18, TAK1 (Homo sapiens, UniProt O43318)
T18 construct: purchased Carna Biosciences
Outline: as §1

[19] = molecular target: T19, SRC (Homo sapiens, UniProt P12931)
T19 construct: purchased Carna Biosciences
Outline: as §1

[20] = molecular target: T20, NDR1 (Homo sapiens, UniProt Q15208)
T20 construct: purchased Carna Biosciences
Outline: as §1

[21] = molecular target: T21, ROCK1 (Homo sapiens, UniProt Q13464)
T21 construct: purchased Carna Biosciences
Outline: as §1

[22] = molecular target: T22, TRKB (Homo sapiens, UniProt Q16620)
T22 construct: purchased Carna Biosciences
Outline: as §1

[23] = molecular target: T23, PKCb1 (Homo sapiens, UniProt P05771)
T23 construct: purchased Carna Biosciences
Outline: as §1

[24] = molecular target: T24, FYN (Homo sapiens, UniProt P06241)
T24 construct: purchased Carna Biosciences
Outline: as §1

[25] = molecular target: T25, LTK (Homo sapiens, UniProt P29376)
T25 construct: purchased Carna Biosciences
Outline: as §1

[26] = molecular target: T26, PKCe (Homo sapiens, UniProt Q02156)
T26 construct: purchased Carna Biosciences
Outline: as §1

[27] = molecular target: T27, CK1a (Homo sapiens, UniProt P48729)
T27 construct: purchased Carna Biosciences
Outline: as §1

[28] = molecular target: T28, CDK5 (Homo sapiens, UniProt Q00535)
T28 construct: purchased Carna Biosciences
Outline: as §1

[29] = molecular target: T29, RET (Homo sapiens, UniProt P07949)
T29 construct: purchased Carna Biosciences
Outline: as §2

[30] = molecular target: T30, MST3 (Homo sapiens, UniProt Q9Y6E0)
T30 construct: purchased Carna Biosciences
T30 sequence (Q9Y6E0 whole entry): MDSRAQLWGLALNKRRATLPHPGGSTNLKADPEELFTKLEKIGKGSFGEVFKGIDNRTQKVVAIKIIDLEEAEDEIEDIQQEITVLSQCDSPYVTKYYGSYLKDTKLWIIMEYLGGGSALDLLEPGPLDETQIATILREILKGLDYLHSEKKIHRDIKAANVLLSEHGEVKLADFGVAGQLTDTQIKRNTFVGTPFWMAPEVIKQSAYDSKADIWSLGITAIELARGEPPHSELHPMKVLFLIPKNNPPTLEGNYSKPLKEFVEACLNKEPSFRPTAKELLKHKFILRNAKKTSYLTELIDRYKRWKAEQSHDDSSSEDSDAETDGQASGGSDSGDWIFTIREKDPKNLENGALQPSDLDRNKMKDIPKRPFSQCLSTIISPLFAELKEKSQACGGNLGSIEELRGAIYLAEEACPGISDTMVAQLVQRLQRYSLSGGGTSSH
Outline: as §1

[31] = molecular target: T31, CK1d (Homo sapiens, UniProt P48730)
T31 construct: purchased Carna Biosciences
Outline: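 Read-out is percent inhibition, plotted against compound concentration and fitted to a four-parameter logistic model to give IC50. Curves comprised 10 points, with ATP approximating Km.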

[32] = molecular target: T32, HIPK1 (Homo sapiens, UniProt Q86Z02)
T32 construct: purchased Carna Biosciences
Outline: as §1

[33] = molecular target: T33, HGK (Homo sapiens, UniProt O95819)
T33 construct: purchased Carna Biosciences
Outline: as §1

[34] = molecular target: T34, LIMK1 (Homo sapiens, UniProt P53667)
T34 construct: purchased Carna Biosciences
Outline: as §2

[35] = molecular target: T35, MUSK (Homo sapiens, UniProt O15146)
T35 construct: purchased Carna Biosciences
Outline: as §1

[36] = molecular target: T36, KIT[T670I] (Homo sapiens, UniProt P10721, T670I)
T36 construct: purchased Carna Biosciences
T36 sequence (P10721 26-976 T670I): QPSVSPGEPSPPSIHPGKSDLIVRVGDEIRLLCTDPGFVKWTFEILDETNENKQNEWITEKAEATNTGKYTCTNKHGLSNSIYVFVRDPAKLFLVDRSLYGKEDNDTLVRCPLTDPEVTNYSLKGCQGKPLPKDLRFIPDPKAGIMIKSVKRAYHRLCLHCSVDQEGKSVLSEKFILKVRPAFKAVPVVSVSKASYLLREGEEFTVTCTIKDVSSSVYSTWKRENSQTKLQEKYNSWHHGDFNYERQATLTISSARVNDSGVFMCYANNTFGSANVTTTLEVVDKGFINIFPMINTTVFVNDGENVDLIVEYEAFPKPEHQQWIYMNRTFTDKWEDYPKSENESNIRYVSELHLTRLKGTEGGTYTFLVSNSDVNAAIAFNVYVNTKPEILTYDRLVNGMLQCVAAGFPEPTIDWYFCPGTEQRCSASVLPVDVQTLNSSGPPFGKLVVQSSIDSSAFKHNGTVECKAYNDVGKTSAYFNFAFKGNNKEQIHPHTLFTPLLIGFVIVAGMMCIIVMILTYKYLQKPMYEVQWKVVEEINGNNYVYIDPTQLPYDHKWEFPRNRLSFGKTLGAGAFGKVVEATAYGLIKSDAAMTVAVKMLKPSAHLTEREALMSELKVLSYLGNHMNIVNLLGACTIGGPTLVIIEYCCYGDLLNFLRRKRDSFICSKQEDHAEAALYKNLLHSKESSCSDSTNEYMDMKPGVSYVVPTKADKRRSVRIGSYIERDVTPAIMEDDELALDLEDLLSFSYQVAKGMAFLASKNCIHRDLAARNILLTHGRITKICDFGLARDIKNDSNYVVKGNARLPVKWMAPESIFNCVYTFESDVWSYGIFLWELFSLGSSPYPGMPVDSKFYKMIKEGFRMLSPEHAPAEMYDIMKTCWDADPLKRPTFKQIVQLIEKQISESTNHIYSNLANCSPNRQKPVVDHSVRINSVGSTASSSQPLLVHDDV
Outline: as §1

[37] = molecular target: T37, RAF1 (Homo sapiens, UniProt P04049)
T37 construct: purchased Carna Biosciences
Outline: as §1

[38] = molecular target: T38, PLK3 (Homo sapiens, UniProt Q9H4B4)
T38 construct: purchased Carna Biosciences
Outline: as §1

[39] = molecular target: T39, PKCg (Homo sapiens, UniProt P05129)
T39 construct: purchased Carna Biosciences
Outline: as §1

[40] = molecular target: T40, CDK9 (Homo sapiens, UniProt P50750)
T40 construct: purchased Carna Biosciences
Outline: as §1

[41] = molecular target: T41, MAPKAPK5 (Homo sapiens, UniProt Q8IW41)
T41 construct: purchased Carna Biosciences
Outline: as §1

[42] = molecular target: T42, HIPK3 (Homo sapiens, UniProt Q9H422)
T42 construct: purchased Carna Biosciences
T42 sequence (Q9H422 whole entry): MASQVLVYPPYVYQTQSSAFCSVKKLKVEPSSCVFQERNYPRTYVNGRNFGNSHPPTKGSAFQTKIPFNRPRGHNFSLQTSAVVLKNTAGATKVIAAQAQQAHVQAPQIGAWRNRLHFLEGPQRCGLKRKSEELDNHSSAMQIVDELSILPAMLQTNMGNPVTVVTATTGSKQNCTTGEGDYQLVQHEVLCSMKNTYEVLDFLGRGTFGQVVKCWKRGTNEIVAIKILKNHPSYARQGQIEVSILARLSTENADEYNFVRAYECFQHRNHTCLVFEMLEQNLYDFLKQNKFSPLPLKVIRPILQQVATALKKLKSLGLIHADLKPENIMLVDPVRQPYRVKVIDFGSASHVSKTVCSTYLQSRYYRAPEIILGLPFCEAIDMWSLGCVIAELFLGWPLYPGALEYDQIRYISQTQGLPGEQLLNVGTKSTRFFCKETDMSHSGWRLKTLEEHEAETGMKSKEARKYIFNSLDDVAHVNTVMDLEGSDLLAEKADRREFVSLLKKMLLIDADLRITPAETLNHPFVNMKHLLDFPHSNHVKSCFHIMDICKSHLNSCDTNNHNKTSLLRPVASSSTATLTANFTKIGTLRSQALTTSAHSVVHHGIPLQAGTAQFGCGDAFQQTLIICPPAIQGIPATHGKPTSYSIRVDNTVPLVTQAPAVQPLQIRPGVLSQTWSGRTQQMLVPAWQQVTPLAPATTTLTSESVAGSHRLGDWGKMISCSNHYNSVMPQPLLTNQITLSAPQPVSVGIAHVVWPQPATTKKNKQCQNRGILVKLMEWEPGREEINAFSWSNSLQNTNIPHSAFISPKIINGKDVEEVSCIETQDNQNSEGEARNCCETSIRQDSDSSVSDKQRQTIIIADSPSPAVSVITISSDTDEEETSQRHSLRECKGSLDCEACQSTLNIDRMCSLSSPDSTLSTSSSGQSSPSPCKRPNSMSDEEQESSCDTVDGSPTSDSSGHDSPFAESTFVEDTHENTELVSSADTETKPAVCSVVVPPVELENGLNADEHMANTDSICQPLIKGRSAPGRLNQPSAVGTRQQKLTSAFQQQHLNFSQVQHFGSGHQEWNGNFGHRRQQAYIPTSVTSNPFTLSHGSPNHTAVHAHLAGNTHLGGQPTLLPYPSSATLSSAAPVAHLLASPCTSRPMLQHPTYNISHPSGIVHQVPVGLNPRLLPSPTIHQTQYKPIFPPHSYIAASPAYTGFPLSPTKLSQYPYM
Outline: as §1

[43] = molecular target: T43, FGFR3 (Homo sapiens, UniProt P22607)
T43 construct: purchased Carna Biosciences
Outline: as §1

[44] = molecular target: T44, p70S6K (Homo sapiens, UniProt P23443)
T44 construct: purchased Carna Biosciences
T44 sequence (P23443 whole entry): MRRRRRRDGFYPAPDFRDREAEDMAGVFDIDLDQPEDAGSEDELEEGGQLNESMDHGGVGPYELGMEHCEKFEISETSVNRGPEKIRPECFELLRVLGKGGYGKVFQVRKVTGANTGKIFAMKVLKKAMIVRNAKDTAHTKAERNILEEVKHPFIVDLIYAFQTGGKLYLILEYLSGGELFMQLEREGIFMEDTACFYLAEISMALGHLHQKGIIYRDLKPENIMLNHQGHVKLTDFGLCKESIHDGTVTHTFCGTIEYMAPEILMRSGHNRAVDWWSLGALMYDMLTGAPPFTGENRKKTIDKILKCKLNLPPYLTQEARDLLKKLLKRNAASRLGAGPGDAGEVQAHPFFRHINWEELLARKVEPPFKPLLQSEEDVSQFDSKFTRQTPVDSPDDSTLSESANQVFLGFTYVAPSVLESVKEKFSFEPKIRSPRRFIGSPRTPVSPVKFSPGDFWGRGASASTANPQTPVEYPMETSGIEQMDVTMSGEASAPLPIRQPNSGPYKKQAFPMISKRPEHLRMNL
Outline: as §1

`CC[C@H](Nc1nc(NCc2cnc(C)cc2C)c2ncn(C(C)C)c2n1)[C@@H](C)O` [Fadraciclib, 2-pentanol, 3-[[6-[[(4,6-dimethyl-3-pyridinyl)methyl]amino]-9-(1-methylethyl)-9Hpurin-2-yl]amino]-, (2R,3S)] showed an inhibition at 1 µM [1] of 1.5 ± 0.1%, an inhibition at 1 µM [2] of -16.2 ± 0.4% and an inhibition at 1 µM [3] of 5.1%. The inhibition at 1 µM [4] was 6.1 ± 0.2%, the inhibition at 1 µM [5] was -9.5% and the inhibition at 1 µM [6] was -21.7 ± 0.2%. It also gave an inhibition at 1 µM [7] of -8.3 ± 0.1%, an inhibition at 1 µM [8] of -3.6% and an inhibition at 1 µM [9] of 70.2 ± 6.8%. It also gave an inhibition at 1 µM [10] of 4.2%, an inhibition at 1 µM [11] of -14.8% and an inhibition at 1 µM [12] of -13.3 ± 0.3%. For the same molecule, the inhibition at 1 µM [13] was 7.4 ± 0.1%, the inhibition at 1 µM [14] was -10.3 ± 0.2% and the inhibition at 1 µM [15] was 4.2 ± 0.2%. The inhibition at 1 µM [16] was 25.3 ± 4.5%, the inhibition at 1 µM [17] was 28.7 ± 2.7% and the inhibition at 1 µM [18] was 0.3%. The inhibition at 1 µM [19] was 2.7%, the inhibition at 1 µM [20] was 2 ± 0.1% and the inhibition at 1 µM [21] was -1.3%. The inhibition at 1 µM [22] was -11.4 ± 0.4%, the inhibition at 1 µM [23] was -1.9% and the inhibition at 1 µM [24] was 7.4 ± 0.3%. For the same molecule, the inhibition at 1 µM [25] was 6.6 ± 0.1%, the inhibition at 1 µM [26] was 7.6 ± 0.1% and the inhibition at 1 µM [27] was 8.2 ± 0.3%. The inhibition at 1 µM [28] was 98.1 ± 4%, the inhibition at 1 µM [29] was 3.4 ± 0.1% and the inhibition at 1 µM [30] was -16.4 ± 0.7%. The inhibition at 1 µM [31] was 13.8 ± 0.4%, the inhibition at 1 µM [32] was 6.8 ± 0.3% and the inhibition at 1 µM [33] was -23.8 ± 2.7%. It also gave an inhibition at 1 µM [34] of 12.3 ± 0.4%, an inhibition at 1 µM [35] of 11.4 ± 0.3% and an inhibition at 1 µM [36] of -9.2 ± 0.2%. For the same molecule, the inhibition at 1 µM [37] was -1.1 ± 0.1%, the inhibition at 1 µM [38] was 5.7 ± 0.3% and the inhibition at 1 µM [39] was 17.2%. The inhibition at 1 µM [40] was 96.6 ± 3.2%, the inhibition at 1 µM [41] was -14.5 ± 0.2% and the inhibition at 1 µM [42] was -1.1%. The inhibition at 1 µM [43] was -5.6 ± 0.2% and the inhibition at 1 µM [44] was 5.6 ± 0.2%.
